Holding throughout (type): physicochemical
A short description of data set [1]: Dissolution (drug release) in 0.05 M phosphate buffer pH 6.8.
The nature of data set [2]: Intrinsic dissolution rate (IDR) in 0.05M phosphate buffer pH 6.8.
Data set [3] can be described thus: Pharmaceutical loading (relative percentage of diclofenac by mass). The text has this:
It has been appreciated that the pharmaceutical loading in the TCPs may be less than that of a commercially available pharmaceutical sodium salt due to the mass of the organic linkers. Provided below is Table I showing a summary for the relative percentages in some of specific diclofenac TCPs. For example, the percent of diclofenac in sodium diclofenac is 93%, whereas the TCPs had loading ranging from 42-70%. The percentage of metal within the TCPs by mass ranged from 2.6-7.9% and the percent of linker by mass ranged from 22-41%. The TCP with EtOH in the name were synthesized in EtOH, all others were synthesized in MeOH. However, it is not strictly required that TCPs be prepared in MeOH and TCPs may be prepared in EtOH instead, or other solvents such as but not limited to: water, acetonitrile, dimethyl sulfoxide, nitromethane, isopropyl alcohol, dimethylformamide or a mixture thereof.

Structures are written as SMILES.

Take `O=C(O)Cc1ccccc1Nc1c(Cl)cccc1Cl` [sodium diclofenac]: the diclofenac released in data set [1] (after 1 h) turned out to be 100%. In data set [2], the “intrinsic dissolution rate (IDR)” value is 1161±0.216 μg cm^−2 min^−1. In data set [3], the “percent of diclofenac (loading)” value is given as 93%.
Consider `CC(C)Cc1ccc(C(C)C(=O)O)cc1.[Na]` (stereo not shown) [sodium ibuprofen], for which, in data set [1] (after 5 min), the ibuprofen released is 100%.

(Values after patent US20240342291A1, “Therapeutic Coordination Polymers Containing Pharmaceuticals for Drug Release Applications” (UNIVERSITY OF WINDSOR, priority 2021, published 2024).)
